Where a name gives a salt, the structure may show the parent alone.
Test system: rabbit cornea
Test: Corneal anaesthesia in rabbit (blinking reflex, Camougis and Tankman method)
Assay type: in vivo
Settings: rabbit eye
Description: […] of solution was instilled in the conjunctival sac. The blinking reflex, tested with a bristle, was measured before instillation and then every 5-10 minutes until one hour after treatment. At each test time the degree of anaesthesia was expressed by means of a score of up to 10 given by the number of stimulations before the eye-blink reflex was obtained. The overall anaesthetic effect for each compound was then quantified by the area under curve (AUC) of the degree of anaesthesia over time.

[1] = Table 1, dose 0.125% (as hydrochloride), reference Bupivacaine HCl = 100
[2] = Table 5, dose 0.125%, degree of salification, 500-730 kDa, reference Bupivacaine HCl = 100

**Q.** Which results are given for `CN(C)CCCOc1nn(Cc2ccccc2)c2ccccc12` [Benzydamine HCl, benzydamine hydrochloride]?
**A.** Anaesthesia (AUC) (Table 1, dose 0.125% (as hydrochloride), reference Benzydamine HCl = 100): 100; Anaesthesia (AUC) (Table 6, dose 0.125%, degree of salification, 50-350 kDa, reference Benzydamine HCl = 100): 100

**Q.** What does the source list for `CCCCN1CCCCC1C(=O)Nc1c(C)cccc1C` (stereo not drawn) [Bupivacaine HCl, bupivacaine hydrochloride]?
**A.** Anaesthesia (AUC) [1]: 100; Anaesthesia (AUC) (Table 3, first group (50% Na salts), dose 0.125%, reference Bupivacaine HCl = 100): 100; Anaesthesia (AUC) (Table 3, second group (50% Ca salts), dose 0.125%, reference Bupivacaine HCl = 100): 100; Anaesthesia (AUC) [2]: 100

**Q.** What does the source list for “stoichiometrically neutral salt of hyaluronic acid with bupivacaine [FID 60.2082]”?
**A.** Anaesthesia (AUC) [1]: 166; Anaesthesia (AUC) (Table 2, dose 0.125%, FID 60.20XX (50-350 kDa), reference FID 60.2082 = 100): 100

**Q.** Which results are given for “stoichiometrically neutral salt of hyaluronic acid with bupivacaine [FID 61.2082]”?
**A.** Anaesthesia (AUC) (Table 2, dose 0.125%, FID 61.20XX (500-730 kDa), reference FID 61.2082 = 100): 100; Anaesthesia (AUC) [2]: 314

**Q.** With “stoichiometrically neutral salt of hyaluronic acid with bupivacaine [FID 62.2082]” as the compound, how does the “Anaesthesia (AUC)” value (Table 2, dose 0.125%, FID 62.20XX (750-1200 kDa), reference FID 62.2082 = 100) read?
**A.** Its value is 100.

**Q.** How did the “Anaesthesia (AUC)” value (Table 1, dose 1% (as hydrochloride), reference Lidocaine HCl = 100) turn out when “stoichiometrically neutral salt of hyaluronic acid with lidocaine [FID 60.2070]” was run?
**A.** Its value is 167.

From patent publication US6224857A, “Pharmaceutical preparations comprised of salts of hyaluronic acid with local anaesthetics” (Fidia, S.p.A., priority 1996, dated 2001)
